Measurements as given in ChEMBL document CHEMBL4177658, “Benzo[c][1,2,5]thiadiazole derivatives: A new class of potent Src homology-2 domain containing protein tyrosine phosphatase-2 (SHP2) inhibitors” (Bioorg Med Chem Lett, 2017).

Experiments:
[1] = target: T1, Tyrosine-protein phosphatase non-receptor type 11 (Homo sapiens, UniProt Q06124); test: Inhibition of SHP2 (unknown origin) using 3-o-methylfluorescein phosphate as substrate by fluorescence assay
T1 sequence (Q06124 whole entry): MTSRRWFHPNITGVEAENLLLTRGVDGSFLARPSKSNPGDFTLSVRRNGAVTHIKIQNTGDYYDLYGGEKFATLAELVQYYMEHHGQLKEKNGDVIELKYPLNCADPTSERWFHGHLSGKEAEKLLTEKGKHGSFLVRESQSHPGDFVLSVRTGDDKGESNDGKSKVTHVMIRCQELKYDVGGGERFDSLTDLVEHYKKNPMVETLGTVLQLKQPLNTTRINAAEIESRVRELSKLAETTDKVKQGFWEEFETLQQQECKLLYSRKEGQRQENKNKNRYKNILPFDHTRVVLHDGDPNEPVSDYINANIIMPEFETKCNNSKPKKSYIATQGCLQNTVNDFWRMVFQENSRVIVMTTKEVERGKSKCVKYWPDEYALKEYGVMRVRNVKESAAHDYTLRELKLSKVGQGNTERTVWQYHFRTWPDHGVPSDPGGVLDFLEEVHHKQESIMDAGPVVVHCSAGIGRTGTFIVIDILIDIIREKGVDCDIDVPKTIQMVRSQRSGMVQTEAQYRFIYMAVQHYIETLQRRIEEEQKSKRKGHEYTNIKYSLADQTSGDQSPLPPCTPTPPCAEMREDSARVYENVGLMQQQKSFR

[2] = target: T2, Tyrosine-protein phosphatase non-receptor type 1 (Homo sapiens) (UniProt P18031); test: Inhibition of GST-tagged PTP1B (unknown origin) at 20 ug/ml using pNPP as substrate measured for 3 mins by colorimetric assay
T2 sequence (whole entry): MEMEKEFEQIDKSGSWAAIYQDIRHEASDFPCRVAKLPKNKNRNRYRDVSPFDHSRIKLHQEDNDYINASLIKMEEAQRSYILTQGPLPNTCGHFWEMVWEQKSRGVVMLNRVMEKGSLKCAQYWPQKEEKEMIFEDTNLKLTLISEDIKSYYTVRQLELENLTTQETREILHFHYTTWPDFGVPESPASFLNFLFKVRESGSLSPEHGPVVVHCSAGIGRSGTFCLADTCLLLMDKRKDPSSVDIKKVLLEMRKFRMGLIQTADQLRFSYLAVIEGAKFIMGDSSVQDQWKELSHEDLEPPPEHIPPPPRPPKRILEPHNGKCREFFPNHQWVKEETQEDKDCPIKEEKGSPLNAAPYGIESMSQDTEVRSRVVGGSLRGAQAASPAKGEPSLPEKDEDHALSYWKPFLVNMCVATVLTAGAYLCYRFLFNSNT

[3] = target: T3, Tyrosine-protein phosphatase non-receptor type 11 (Homo sapiens) (UniProt Q06124); test: Inhibition of SHP2 (unknown origin) at 20 ug/ml using 3-o-methylfluorescein phosphate as substrate by fluorescence assay
T3 sequence (whole entry): T1 sequence (Q06124 whole entry)

[4] = target: T4, Tyrosine-protein phosphatase non-receptor type 1 (Homo sapiens, UniProt P18031); test: Inhibition of GST-tagged PTP1B (unknown origin) using pNPP as substrate measured for 3 mins by colorimetric assay
T4 sequence (P18031 whole entry): T2 sequence (whole entry)

Homo sapiens [5] = species on record: Homo sapiens; test: Selectivity index, ratio of IC50 for SHP1 (unknown origin) to IC50 for SHP2 (unknown origin)
Homo sapiens [6] = species on record: Homo sapiens; test: Selectivity index, ratio of IC50 for GST-tagged PTP1B (unknown origin) to iC50 for SHP2 (unknown origin)
[7] = target: Tyrosine-protein phosphatase non-receptor type 6 (Homo sapiens, UniProt P29350); test: Inhibition of SHP1 (unknown origin) using 3-o-methylfluorescein phosphate as substrate by fluorescence assay
[8] = target: T5, Tyrosine-protein phosphatase non-receptor type 2 (Homo sapiens) (UniProt P17706); test: Inhibition of GST-tagged TCPTP (unknown origin) at 20 ug/ml using pNPP as substrate measured for 3 mins by colorimetric assay
T5 sequence (whole entry): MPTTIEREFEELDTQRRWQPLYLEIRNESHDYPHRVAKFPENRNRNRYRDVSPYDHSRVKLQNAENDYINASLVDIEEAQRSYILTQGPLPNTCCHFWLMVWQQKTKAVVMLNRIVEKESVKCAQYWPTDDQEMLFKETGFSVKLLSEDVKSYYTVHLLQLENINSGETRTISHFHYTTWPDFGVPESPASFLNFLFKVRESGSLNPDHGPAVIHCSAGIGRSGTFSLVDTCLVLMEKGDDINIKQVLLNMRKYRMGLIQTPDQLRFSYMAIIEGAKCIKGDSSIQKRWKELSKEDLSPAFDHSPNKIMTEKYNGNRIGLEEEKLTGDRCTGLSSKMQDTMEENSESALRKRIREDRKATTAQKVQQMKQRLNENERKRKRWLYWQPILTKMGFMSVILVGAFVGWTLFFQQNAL

Chain of Tyrosine-protein phosphatase non-receptor type 6 (P29350 whole entry): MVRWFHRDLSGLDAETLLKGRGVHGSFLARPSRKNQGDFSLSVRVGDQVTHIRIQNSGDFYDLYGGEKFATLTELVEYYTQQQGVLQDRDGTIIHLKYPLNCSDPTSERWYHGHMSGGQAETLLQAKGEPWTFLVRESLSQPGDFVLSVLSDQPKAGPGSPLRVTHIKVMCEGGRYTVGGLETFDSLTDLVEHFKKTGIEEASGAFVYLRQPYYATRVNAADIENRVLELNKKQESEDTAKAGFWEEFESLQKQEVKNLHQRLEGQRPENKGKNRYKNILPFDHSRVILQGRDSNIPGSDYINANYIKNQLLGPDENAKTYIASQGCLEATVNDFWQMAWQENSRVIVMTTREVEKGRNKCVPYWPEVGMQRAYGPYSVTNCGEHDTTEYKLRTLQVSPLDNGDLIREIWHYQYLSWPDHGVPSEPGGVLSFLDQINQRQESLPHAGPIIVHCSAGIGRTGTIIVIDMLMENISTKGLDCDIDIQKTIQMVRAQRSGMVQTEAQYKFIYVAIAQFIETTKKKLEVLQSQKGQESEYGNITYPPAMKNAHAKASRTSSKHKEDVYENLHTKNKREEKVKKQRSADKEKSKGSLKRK

Row | Compound | IC50 [1] [µM] | inhibition [2] [%] | inhibition [3] [%] | other results
1 | Nc1cc2nsnc2cc1Br | 42.4 | < 50 | – | –
2 | C[Si](C)(C)C#Cc1cc2nsnc2cc1[N+](=O)[O-] | – | < 50 | < 50 | –
3 | C[Si](C)(C)C#Cc1cc2nsnc2cc1N | – | < 50 | < 50 | –
4 | C#Cc1cc2nsnc2cc1N | 2.11 | – | – | IC50 [4]: 50.2 µM; Ratio IC50 (Homo sapiens [5]): 2.02; Ratio IC50 (Homo sapiens [6]): 25; IC50 [7]: 4.28 µM; inhibition [8]: < 50%
5 | CC(C)(C)C#Cc1cc2nsnc2cc1N | 25.8 | < 50 | – | –
6 | CC(C)(C)C#Cc1cc2nsnc2cc1[N+](=O)[O-] | – | < 50 | < 50 | –
7 | C#Cc1cc2nsnc2cc1[N+](=O)[O-] | 30 | < 50 | – | –
8 | Nc1cc2nsnc2cc1C#CCCCCCl | 5.81 | – | – | IC50 [4]: 38.2 µM
9 | O=[N+]([O-])c1cc2nsnc2cc1C#Cc1ccccc1 | – | < 50 | < 50 | –
10 | O=[N+]([O-])c1cc2nsnc2cc1C#CC1CC1 | – | < 50 | < 50 | –
11 | Nc1cc2nsnc2cc1C#CC1CC1 | 15.5 | < 50 | – | –
12 | O=[N+]([O-])c1cc2nsnc2cc1C#CCCCCCl | – | < 50 | < 50 | –

Further lines, with some results ahead:

Row | IC50 [1] [µM] | inhibition [2] [%] | inhibition [3] [%] | Compound | other results
13 | – | < 50 | < 50 | c1cc2nsnc2cc1NCC1CCCCC1 | –
14 | 14 | – | – | Nc1cc2nsnc2cc1C#Cc1ccccc1 | IC50 [4]: 33.6 µM
15 | – | < 50 | < 50 | Nc1cc2nsnc2cc1-c1ccccc1 | –
16 | – | < 50 | < 50 | O=[N+]([O-])c1cc2nsnc2cc1-c1ccccc1 | –
17 | – | < 50 | < 50 | CCCNc1ccc2nsnc2c1 | –
18 | 39.1 | < 50 | – | Nc1ccc2nsnc2c1 | –
19 | – | < 50 | < 50 | c1coc(CNc2ccc3nsnc3c2)c1 | –
20 | 30.6 | < 50 | – | c1ccc(CNc2ccc3nsnc3c2)nc1 | –
21 | 23.9 | – | – | c1csc(CNc2ccc3nsnc3c2)c1 | IC50 [4]: 48.3 µM
22 | 26.5 | – | – | c1ccc(CNc2ccc3nsnc3c2)cc1 | IC50 [4]: 42.1 µM
